This is an account of results in ChEMBL document CHEMBL1649363, “Nitropyrrolins A-E, cytotoxic farnesyl-α-nitropyrroles from a marine-derived bacterium within the actinomycete family Streptomycetaceae” (J Nat Prod, 2010).

One experiment has as its system HCT-116. The experiment in a line: Cytotoxicity against human HCT116 cells. The experiment is classed as functional, cell-based.
The test system of the next experiment is Staphylococcus aureus. The experiment can be described thus: Antibacterial activity against methicillin-resistant Staphylococcus aureus. It counts as functional.
Setting [1] is: Homo sapiens, HCT-116, read-out: IC50.

Values after ≈ are worked out from the molar mass of the structure shown. Some results are limits rather than exact numbers.

With `CC(C)=CCC/C(C)=C/CC[C@@]1(C)O[C@@H]1Cc1c[nH]c([N+](=O)[O-])c1` [NITROPYRROLIN B], in the experiment with HCT-116 (setting [1]), the IC50 is 31 µM. For the same molecule, the MIC against Staphylococcus aureus is greater than 20 µg/mL.
Consider `CC(C)=CCC/C(C)=C\CC/C(C)=C\Cc1ccc[nH]1`, for which, in the experiment with HCT-116 (setting [1]), the IC50 stood at 24.4 µM. Moreover, the MIC in the experiment on Staphylococcus aureus is greater than 20 µg/mL.
For the molecule `CC(C)=CCC/C(C)=C/C/C=C(\C)[C@H](O)Cc1c[nH]c([N+](=O)[O-])c1` [NITROPYRROLIN D], the IC50 in the experiment on HCT-116 (setting [1]) is 5.7 µM. This molecule showed an MIC in the experiment on Staphylococcus aureus greater than 20 µg/mL.
Turning to `O=[N+]([O-])c1ccc[nH]1`, the IC50 entry in the experiment with HCT-116 (hct-116) is on record as “Not Active”. In the experiment with Staphylococcus aureus, this molecule returned an MIC greater than 20 µg/mL.
With `CC(C)=CCC/C(C)=C\CC/C(C)=C\Cc1cc[nH]c1`, the half-inhibitory concentration (IC50) with HCT-116 (setting [1]) came out at 13.7 µM. For the same molecule, in the experiment on Staphylococcus aureus, the MIC was 2.8 µg/mL (≈ 10.3 µM).
On to `CC(C)=CCC/C(C)=C/CC[C@@](C)(Cl)[C@H](O)Cc1c[nH]c([N+](=O)[O-])c1` [NITROPYRROLIN C], for which the IC50 entry with HCT-116 (hct-116) is recorded as “Not Active”. The molecule further came in with a minimum inhibitory concentration (MIC) with Staphylococcus aureus greater than 20 µg/mL.
In the case of `O=[N+]([O-])c1cc[nH]c1`, in the experiment with HCT-116 (hct-116), the IC50 entry was “Not Active”. In the experiment with Staphylococcus aureus, the MIC is greater than 20 µg/mL.
`CC(C)=CCC/C(C)=C/CC[C@](C)(O)[C@H](O)Cc1c[nH]c([N+](=O)[O-])c1` [NITROPYRROLIN A]: the IC50 in the experiment with HCT-116 (setting [1]) was 31.1 µM. In the experiment with Staphylococcus aureus, this molecule had an MIC greater than 20 µg/mL.
In the case of `C/C(=C\CC[C@@](C)(Cl)[C@H](O)Cc1c[nH]c([N+](=O)[O-])c1)CC[C@@H](O)C(C)(C)O` [NITROPYRROLIN E], the IC50 entry in the experiment with HCT-116 (hct-116) was “Not Active”. The molecule further displayed a minimal inhibitory concentration (MIC) against Staphylococcus aureus greater than 20 µg/mL.
With `CC(C)=CCC/C(C)=C\CC/C(C)=C\Cc1c[nH]c([N+](=O)[O-])c1`, the IC50 in the experiment on HCT-116 (setting [1]) came out at 9.2 µM. In the experiment on Staphylococcus aureus, this molecule showed an MIC greater than 20 µg/mL.
